Source: BindingDB's records for patent US20250313563 (The Broad Institute, 2025)
“And” between values parts separate entries of the source, which are not always exact repeats. Identical values can stand only once.

Experiments:
[1] = biological target: Glycogen synthase kinase-3 alpha (Homo sapiens, UniProt P49840); assay: TR-FRET Assay
Procedure, shortened: (§1)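 TR-FRET readout: streptavidin-d2 (40 nM in added detection mix) plus Tb-anti-pSer641 Ab (2 nM in mix). Steps were 30 min compound preincubation, kinase reaction, then EDTA stop.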

[2] = biological target: Glycogen synthase kinase-3 beta (Homo sapiens, UniProt P49841); assay: TR-FRET Assay
Chain of Glycogen synthase kinase-3 beta (P49841 whole entry): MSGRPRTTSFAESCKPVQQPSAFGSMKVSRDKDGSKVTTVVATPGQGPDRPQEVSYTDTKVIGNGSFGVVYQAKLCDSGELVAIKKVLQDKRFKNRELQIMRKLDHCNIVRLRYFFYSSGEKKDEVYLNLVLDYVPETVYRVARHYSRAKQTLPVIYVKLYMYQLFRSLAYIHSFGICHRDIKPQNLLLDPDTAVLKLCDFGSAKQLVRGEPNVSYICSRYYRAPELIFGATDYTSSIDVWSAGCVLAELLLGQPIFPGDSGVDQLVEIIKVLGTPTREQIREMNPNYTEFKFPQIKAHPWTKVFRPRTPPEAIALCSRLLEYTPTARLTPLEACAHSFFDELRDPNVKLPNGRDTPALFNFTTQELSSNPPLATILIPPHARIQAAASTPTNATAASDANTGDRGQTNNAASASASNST
Procedure, shortened: as §1

Chain of Glycogen synthase kinase-3 alpha (P49840 whole entry): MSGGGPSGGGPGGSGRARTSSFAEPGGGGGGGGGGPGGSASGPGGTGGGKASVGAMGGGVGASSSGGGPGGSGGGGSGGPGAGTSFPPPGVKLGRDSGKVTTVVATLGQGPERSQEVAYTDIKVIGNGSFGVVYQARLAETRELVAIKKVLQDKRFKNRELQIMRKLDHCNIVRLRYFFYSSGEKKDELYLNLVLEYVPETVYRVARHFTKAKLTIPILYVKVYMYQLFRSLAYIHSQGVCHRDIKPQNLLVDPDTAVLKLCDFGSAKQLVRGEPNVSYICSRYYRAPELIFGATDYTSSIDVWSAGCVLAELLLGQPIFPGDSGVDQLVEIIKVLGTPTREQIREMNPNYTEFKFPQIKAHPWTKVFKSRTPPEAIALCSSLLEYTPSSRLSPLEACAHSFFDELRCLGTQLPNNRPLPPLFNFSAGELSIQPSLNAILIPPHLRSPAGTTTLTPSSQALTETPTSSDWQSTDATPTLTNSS

`C[C@H]1C[C@]2(CCN1S(=O)(=O)c1ccn(C)n1)C1=C(N=NC1)NC1=C2C(=O)CC(C)(C)C1` [US20250313563, Compound 926815] gave an IC50 [1] of less than 100 nM and an IC50 [2] of less than 100 nM.

`CC1(C)CC(=O)C2=C(C1)NC1=C(CN=N1)C21COC2(CN(C(=O)C(F)F)C2)C1` (configuration not stated) [US20250313563, Compound 947485] was tested, and the IC50 [1] was less than 100 nM and the IC50 [2] was less than 100 nM.

For `CC[C@@]1(c2ccccc2)C2=CN=NC2NC2=C1C(=O)[C@H](F)C(C)(C)C2` (some centres not stated) [US20250313563, Compound 826766], the IC50 [1] was 100 to 1000 nM and the IC50 [2] was 100 to 1000 nM.

For `CC[C@@]1(c2cccc(-c3cc(C)nn3C)c2)C2=C(CC(C)(C)CC2=O)NC2N=NC(C(F)(F)F)=C21` (some centres not stated) [US20250313563, Compound 947384], the IC50 [1] was less than 100 nM and the IC50 [2] was < 100 nM and 100 to 1000 nM.

Compound `CCC1(c2cccc(-c3ccnc(OC(C)C)c3)c2)C2=CN=NC2NC2=C1C(=O)CC(C)(C)C2` (configuration not stated) [US20250313563, Compound 932626] has an IC50 [1] of 100 to 1000 nM and an IC50 [2] of 100 to 1000 nM.

Work on `CC[C@@]1(c2cccc(-c3cc(C)ncc3F)c2)C2=CN=NC2NC2=C1C(=O)NC(C)(C)C2` (some centres not stated) [US20250313563, Compound 947822] yielded an IC50 [1] of 100 to 1000 nM and an IC50 [2] greater than 5000 nM.

With `Cc1cc(S(=O)(=O)N2CCC3(CC2)C2=C(N=NC2)NC2=C3C(=O)CC(C)(C)C2)ccn1` [US20250313563, Compound 947481] the IC50 [1] was less than 100 nM and the IC50 [2] was less than 100 nM.

For `Cc1ccc(C(=O)N2CC3(C2)C[C@@]2(CO3)C3=C(N=NC3)NC3=C2C(=O)CC(C)(C)C3)cc1C` [US20250313563, Compound 948039], the IC50 [1] was 100 to 1000 nM and the IC50 [2] was 1000 to 5000 nM.

Compound `CC[C@]1(c2cccc(C(F)(F)F)c2)C2=CN=NC2NC2=C1C(=O)N(C(C)(C)C)CC2` (some centres not stated) [US20250313563, Compound 945633] has an IC50 [1] greater than 5000 nM and an IC50 [2] greater than 5000 nM.

For `CC1(C)CC(=O)C2=C(C1)NC1=C(CN=N1)[C@]21CC[C@@H](c2ccncc2)CC1` [US20250313563, Compound 949320], the IC50 [1] was 100 to 1000 nM and the IC50 [2] was 1000 to 5000 nM.

Compound `CCC1(c2cc(N(C)C(C)=O)ccc2F)C2=CN=NC2NC2=C1C(=O)CC(C)(C)C2` (configuration not stated) [US20250313563, Compound 913124] has an IC50 [1] of 100 to 1000 nM and an IC50 [2] of 100 to 1000 nM.

With `CC1(C)CC(=O)C2=C(C1)NC1=C(CN=N1)[C@]21COC2(CN(C(=O)[C@H]3CC3(F)F)C2)C1` [US20250313563, Compound 948215] the IC50 [1] was < 100 nM and 100 to 1000 nM and the IC50 [2] was < 100 nM and 100 to 1000 nM.

For `CC1(C)CC(=O)C2=C(C1)NC1=C(CN=N1)[C@]21CC[C@@H](C(F)(F)F)C1` [US20250313563, Compound 952437], the IC50 [1] was 100 to 1000 nM and the IC50 [2] was 100 to 1000 nM.

`CC[C@@]1(c2cccc(-c3ccnc4c3CCC4)c2)C2=C(CC(C)(C)NC2=O)NC2N=NC(C(F)(F)F)=C21` (some centres not stated) [US20250313563, Compound 948778] was tested, and the IC50 [1] was < 100 nM and 100 to 1000 nM and the IC50 [2] was < 100 nM and 1000 to 5000 nM.

Compound `CC[C@@]1(c2cccc([C@@H](C)c3ncccn3)c2)C2=CN=NC2NC2=C1C(=O)CC(C)(C)C2` (some centres not stated) [US20250313563, Compound 948061] has an IC50 [1] of 100 to 1000 nM and an IC50 [2] of 1000 to 5000 nM.

Compound `CCC1(c2cccc(NS(C)(=O)=O)c2)C2=CN=NC2NC2=C1C(=O)CC(C)(C)C2` (configuration not stated) [US20250313563, Compound 913253] has an IC50 [1] of less than 100 nM and an IC50 [2] of less than 100 nM.

Work on `CC[C@@]1(c2ccccc2)C2=C(N=NC2)NC2=C1C(=O)[C@H]1CC[C@@H]2C1` [US20250313563, Compound 791266] yielded an IC50 [1] greater than 5000 nM and an IC50 [2] greater than 5000 nM.

Work on `CCC1(c2cccc(N(C)c3cnccn3)c2)C2=CN=NC2NC2=C1C(=O)CC(C)(C)C2` (configuration not stated) [US20250313563, Compound 902971] yielded an IC50 [1] of less than 100 nM and an IC50 [2] of less than 100 nM.

`CC[C@]1(c2cccc(-c3ccnn3C)c2)C2=CN=NC2NC2=C1C(=O)CC(C)(C)[C@@H]2F` (some centres not stated) [US20250313563, Compound 957506] was tested, and the IC50 [1] was < 100 nM and 100 to 1000 nM and the IC50 [2] was 100 to 1000 nM and > 5000 nM.

Work on `CC1(C)CC2=C(C(=O)C1F)[C@]1(CC[C@@H](C(F)(F)F)CC1)C1=CN=NC1N2` (some centres not stated) [US20250313563, Compound 917134] yielded an IC50 [1] of less than 100 nM and an IC50 [2] of 100 to 1000 nM.

Work on `CCC1(c2cccc(-c3ccnn3C)c2)C2=CN=NC2NC2=C1C(=O)NC(C)(C)C2` (configuration not stated) [US20250313563, Compound 914971] yielded an IC50 [1] of less than 100 nM and an IC50 [2] of 100 to 1000 nM.
